PubChem BioAssay (NCI)
Values joined by “and” are separate entries in the source; they are usually repeats but may differ in a detail not shown here. Identical values can stand only once.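 In this assay, cells in 96-well plates receive the compound at five concentrations for 48 hours. Endpoints are linearly interpolated between the surrounding concentrations. Here, GI50 denotes the concentration required for 50% inhibition of growth. The concentration for full growth arrest is given as TGI.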

Key:
Assay in all cases: NCI anticancer screen, dose series, 48 h
CAKI-1 renal = system: CAKI-1 renal
EKVX NSCLC = system: EKVX NSCLC
HCT-116 colon = system: HCT-116 colon
HT29 colon = system: HT29 colon
IGROV1 ovarian = system: IGROV1 ovarian
MALME-3M melanoma = system: MALME-3M melanoma
NCI-H460 lung = system: NCI-H460 lung
OVCAR-3 ovarian = system: OVCAR-3 ovarian
RPMI-8226 leukemia = system: RPMI-8226 leukemia
SNB-19 CNS = system: SNB-19 CNS

Q: For `CCC(/C=C/c1ccccc1)=N\NC(=S)N/N=C(/C=C/c1ccccc1)CC`, which TGI (CAKI-1 renal) is on record?
A: > 100 µM

Q: What about the TGI (EKVX NSCLC) of the same molecule?
A: > 100 µM

Q: What about the TGI (HCT-116 colon) of the same molecule?
A: > 100 µM

Q: What about the TGI (HT29 colon) of the same molecule?
A: > 100 µM

Q: What about the TGI (IGROV1 ovarian) of the same molecule?
A: > 100 µM

Q: And the TGI (MALME-3M melanoma)?
A: > 100 µM

Q: And the TGI (NCI-H460 lung)?
A: > 100 µM

Q: What about the TGI (OVCAR-3 ovarian) of the same molecule?
A: > 100 µM

Q: And the TGI (RPMI-8226 leukemia)?
A: > 100 µM

Q: What about the TGI (SNB-19 CNS) of the same molecule?
A: > 100 µM

Q: How did the TGI (CAKI-1 renal) turn out when `CC1C=C(NCC2(CO)CCC2)NC(N)=N1` (stereo unspecified) was run?
A: > 100 µM

Q: What about the TGI (EKVX NSCLC) of the same molecule?
A: > 100 µM

Q: And the TGI (HCT-116 colon)?
A: > 100 µM

Q: What about the TGI (HT29 colon) of the same molecule?
A: > 100 µM

Q: And the TGI (IGROV1 ovarian)?
A: > 100 µM

Q: And the TGI (MALME-3M melanoma)?
A: > 100 µM

Q: What about the TGI (NCI-H460 lung) of the same molecule?
A: > 100 µM

Q: And the TGI (OVCAR-3 ovarian)?
A: > 100 µM

Q: What about the TGI (RPMI-8226 leukemia) of the same molecule?
A: > 100 µM

Q: What about the TGI (SNB-19 CNS) of the same molecule?
A: > 100 µM

Q: How did the TGI (CAKI-1 renal) turn out when `Cc1ccc(N2C(=O)CC(=O)N(NC(=O)C(C)Oc3ccccc3C)C2=S)cc1` (stereo unspecified) was run?
A: > 100 µM

Q: What about the TGI (EKVX NSCLC) of the same molecule?
A: > 100 µM

Q: And the TGI (HCT-116 colon)?
A: > 100 µM

Q: What about the TGI (HT29 colon) of the same molecule?
A: > 100 µM

Q: What about the TGI (IGROV1 ovarian) of the same molecule?
A: > 100 µM

Q: And the TGI (MALME-3M melanoma)?
A: > 100 µM

Q: What about the TGI (NCI-H460 lung) of the same molecule?
A: > 100 µM

Q: What about the TGI (OVCAR-3 ovarian) of the same molecule?
A: > 100 µM

Q: What about the TGI (RPMI-8226 leukemia) of the same molecule?
A: > 100 µM

Q: And the TGI (SNB-19 CNS)?
A: > 100 µM

Q: Which results are given for `CC1OC(OC2C(Oc3cc(O)c4c(=O)cc(-c5ccc(O)cc5)oc4c3)OC(CO)C(O)C2O)C(O)C(O)C1O` (stereo unspecified)?
A: TGI (CAKI-1 renal): > 100 µM; TGI (EKVX NSCLC): > 100 µM; TGI (HCT-116 colon): > 100 µM; TGI (HT29 colon): > 100 µM; TGI (IGROV1 ovarian): > 100 µM; TGI (MALME-3M melanoma): > 100 µM; TGI (NCI-H460 lung): > 100 µM; TGI (OVCAR-3 ovarian): > 100 µM; TGI (RPMI-8226 leukemia): > 100 µM; TGI (SNB-19 CNS): > 100 µM

Q: `COc1ccc(C2c3cc4c(cc3OC(N3CCOCC3)C2C)OCO4)c(OC)c1` (stereo unspecified) was tested. Which TGI (CAKI-1 renal) did it give?
A: 62.1 µM

Q: And the TGI (EKVX NSCLC)?
A: > 85.3 µM

Q: And the TGI (HCT-116 colon)?
A: 15.8 µM

Q: What about the TGI (HT29 colon) of the same molecule?
A: 13.2 µM

Q: And the TGI (IGROV1 ovarian)?
A: > 100 µM

Q: What about the TGI (MALME-3M melanoma) of the same molecule?
A: 36.6 µM

Q: What about the TGI (NCI-H460 lung) of the same molecule?
A: 24.4 µM

Q: And the TGI (OVCAR-3 ovarian)?
A: 13.9 µM

Q: What about the TGI (RPMI-8226 leukemia) of the same molecule?
A: 19.9 µM

Q: And the TGI (SNB-19 CNS)?
A: 28.9 µM

Q: What does the source list for `O=S(=O)(O)Nc1ccc(-c2nc3ccccc3s2)cc1Cl`?
A: TGI (CAKI-1 renal): > 100 µM; TGI (EKVX NSCLC): > 100 µM; TGI (HCT-116 colon): > 100 µM; TGI (HT29 colon): > 100 µM; TGI (IGROV1 ovarian): > 100 µM; TGI (MALME-3M melanoma): > 100 µM; TGI (NCI-H460 lung): > 100 µM; TGI (OVCAR-3 ovarian): > 100 µM; TGI (RPMI-8226 leukemia): > 100 µM; TGI (SNB-19 CNS): > 100 µM

Q: `Cc1ccc(-c2c(C#N)c(S)n(NS(=O)(=O)c3ccccc3)c(=O)c2C#N)cc1` was tested. Which TGI (CAKI-1 renal) did it give?
A: 92.9 µM

Q: What about the TGI (EKVX NSCLC) of the same molecule?
A: > 100 µM

Q: What about the TGI (HCT-116 colon) of the same molecule?
A: > 100 µM

Q: What about the TGI (IGROV1 ovarian) of the same molecule?
A: 85.4 µM

Q: And the TGI (MALME-3M melanoma)?
A: > 100 µM

Q: What about the TGI (NCI-H460 lung) of the same molecule?
A: 31.3 µM

Q: What about the TGI (OVCAR-3 ovarian) of the same molecule?
A: > 100 µM

Q: What about the TGI (RPMI-8226 leukemia) of the same molecule?
A: 77.4 µM

Q: And the TGI (SNB-19 CNS)?
A: > 100 µM

Q: Which TGI (CAKI-1 renal) does the source give for `CCO[C@H]1C[C@@H](c2ccccc2)[C@]2(C)C[C@H](C(=O)OC)ON2O1` here?
A: > 100 µM

Q: What about the TGI (EKVX NSCLC) of the same molecule?
A: > 100 µM

Q: What about the TGI (HCT-116 colon) of the same molecule?
A: > 100 µM

Q: And the TGI (HT29 colon)?
A: > 100 µM

Q: And the TGI (IGROV1 ovarian)?
A: > 100 µM

Q: What about the TGI (MALME-3M melanoma) of the same molecule?
A: > 100 µM

Q: What about the TGI (OVCAR-3 ovarian) of the same molecule?
A: > 100 µM

Q: What about the TGI (RPMI-8226 leukemia) of the same molecule?
A: > 100 µM

Q: And the TGI (SNB-19 CNS)?
A: > 100 µM

Q: How did the TGI (CAKI-1 renal) turn out when `O=[N+]([O-])c1cccc2nc3ccccc3c(NCCNCCO)c12` was run?
A: 0.088 µM

Q: And the GI50 (EKVX NSCLC)?
A: 0.0306 µM

Q: What about the TGI (EKVX NSCLC) of the same molecule?
A: 0.286 µM and 0.181 µM

Q: What about the TGI (HCT-116 colon) of the same molecule?
A: 0.107 µM

Q: And the TGI (IGROV1 ovarian)?
A: 0.0233 µM and 0.0569 µM

Q: And the TGI (MALME-3M melanoma)?
A: 0.0216 µM and 0.0317 µM

Q: What about the TGI (NCI-H460 lung) of the same molecule?
A: 0.108 µM

Q: And the GI50 (OVCAR-3 ovarian)?
A: 0.0114 µM

Q: And the TGI (OVCAR-3 ovarian)?
A: 0.0268 µM and 0.0556 µM

Q: What about the TGI (RPMI-8226 leukemia) of the same molecule?
A: 0.0602 µM and 0.0646 µM

Q: What about the GI50 (SNB-19 CNS) of the same molecule?
A: 0.0102 µM

Q: With `COc1cc2cnc3c(c2cc1OC)Cc1cc2c(cc1-3)OCO2` as the molecule, how does the GI50 (CAKI-1 renal) read?
A: < 0.01 µM

Q: And the TGI (CAKI-1 renal)?
A: > 74.7 µM

Q: And the GI50 (EKVX NSCLC)?
A: 0.0279 µM

Q: And the TGI (EKVX NSCLC)?
A: 55.9 µM

Q: What about the TGI (HCT-116 colon) of the same molecule?
A: > 50.3 µM

Q: And the GI50 (HT29 colon)?
A: < 0.01 µM

Q: And the TGI (HT29 colon)?
A: 73.4 µM

Q: And the GI50 (IGROV1 ovarian)?
A: 0.014 µM

Q: What about the TGI (IGROV1 ovarian) of the same molecule?
A: > 62.9 µM

Q: And the GI50 (MALME-3M melanoma)?
A: < 0.01 µM

Q: What about the TGI (MALME-3M melanoma) of the same molecule?
A: 74.9 µM

Q: And the GI50 (NCI-H460 lung)?
A: < 0.01 µM

Q: What about the TGI (NCI-H460 lung) of the same molecule?
A: 0.034 µM

Q: And the GI50 (RPMI-8226 leukemia)?
A: < 0.01 µM

Q: And the TGI (RPMI-8226 leukemia)?
A: 85.7 µM

Q: And the GI50 (SNB-19 CNS)?
A: 0.0486 µM

Q: What about the TGI (SNB-19 CNS) of the same molecule?
A: 37.7 µM
